≈ marks a conversion by molar mass, not a printed value. Calls of active or inactive are those of the source. The rule behind the calls is not given here.
How the values were obtained:
[1] = system: Streptococcus pyogenes; assay: Antimicrobial activity against Streptococcus pyogenes MTCC 442 incubated for overnight by broth micro dilution method; assay type: functional
[2] = system: Staphylococcus aureus; assay: Antimicrobial activity against Staphylococcus aureus MTCC 96 incubated for overnight by broth micro dilution method; assay type: functional
[3] = system: Escherichia coli; assay: Antimicrobial activity against Escherichia coli MTCC 443 incubated for overnight by broth micro dilution method; assay type: functional
[4] = system: Pseudomonas aeruginosa; assay: Antimicrobial activity against Pseudomonas aeruginosa MTCC 1688 incubated for overnight by broth micro dilution method; assay type: functional
[5] = system: Candida albicans; assay: Antifungal activity against Candida albicans MTCC 227 incubated for overnight by broth micro dilution method; assay type: functional
[6] = system: Plasmodium falciparum; assay: Antimalarial activity against Plasmodium falciparum ring stage forms after 48 hrs; assay type: functional
[7] = Cytotoxicity against Schizosaccharomyces pombe Var. Paul Linder 3360 assessed as cell viability at 2 ug/ml after 16 to 18 hrs by trypan blue staining-based compound microscopic analysis (reference value: 93.67 +/- 1.53%); conditions: Schizosaccharomyces pombe Var. Paul Linder 3360 cells, read-out: Activity
[8] = Cytotoxicity against Schizosaccharomyces pombe Var. Paul Linder 3360 assessed as cell viability at 4 ug/ml after 16 to 18 hrs by trypan blue staining-based compound microscopic analysis (reference value: 93.67 +/- 1.53%); conditions: Schizosaccharomyces pombe Var. Paul Linder 3360 cells, read-out: Activity
[9] = Cytotoxicity against Schizosaccharomyces pombe Var. Paul Linder 3360 assessed as cell viability at 6 ug/ml after 16 to 18 hrs by trypan blue staining-based compound microscopic analysis (reference value: 93.67 +/- 1.53%); conditions: Schizosaccharomyces pombe Var. Paul Linder 3360 cells, read-out: Activity
[10] = Cytotoxicity against Schizosaccharomyces pombe Var. Paul Linder 3360 assessed as cell viability at 8 ug/ml after 16 to 18 hrs by trypan blue staining-based compound microscopic analysis (reference value: 93.67 +/- 1.53%); conditions: Schizosaccharomyces pombe Var. Paul Linder 3360 cells, read-out: Activity
[11] = Cytotoxicity against Schizosaccharomyces pombe Var. Paul Linder 3360 assessed as cell viability at 10 ug/ml after 16 to 18 hrs by trypan blue staining-based compound microscopic analysis (reference value: 93.67 +/- 1.53%); conditions: Schizosaccharomyces pombe Var. Paul Linder 3360 cells, read-out: Activity
[12] = system: Schizosaccharomyces pombe; assay: Genotoxicity in Schizosaccharomyces pombe Var. Paul Linder 3360 assessed as DNA damage at 2 to 10 ug/ml after 17 to 18 hrs by agarose gel electrophoresis analysis
[13] = target: T1, Dihydrofolate reductase (Bos taurus, UniProt P00376); assay: Inhibition of bovine liver DHFR pre-incubated 2 mins before dihydrofolic acid substrate addition and measured over 10 mins in presence of NADPH
T1 sequence (P00376 whole entry): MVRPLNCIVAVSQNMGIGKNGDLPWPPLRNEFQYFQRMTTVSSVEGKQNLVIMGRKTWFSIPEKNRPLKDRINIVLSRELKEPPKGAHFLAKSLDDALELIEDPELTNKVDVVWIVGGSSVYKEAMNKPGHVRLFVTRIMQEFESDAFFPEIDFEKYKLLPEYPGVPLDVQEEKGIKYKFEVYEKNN

[14] = system: Aspergillus clavatus; conditions: MTCC 1323
[15] = system: Aspergillus clavatus; assay: Antifungal activity against Aspergillus clavatus MTCC 1323 incubated for overnight by broth micro dilution method; assay type: functional

Compound | MIC99 [1] [µM] | MIC99 [2] [µM] | MIC99 [3] [µM] | MIC99 [4] [µM] | MIC99 [5] | IC50 [6] [nM] | IC50 [13] [nM] | MIC99 [14] | MIC99 [15] [µM] | viability at 2 ug/ml [7] [%] | viability at 4 ug/ml [8] [%] | viability at 6 ug/ml [9] [%] | viability at 8 ug/ml [10] [%] | viability at 10 ug/ml [11] [%] | Activity [12]
COC1=CC(=O)C[C@@H](C)[C@]12Oc1c(Cl)c(OC)cc(OC)c1C2=O [GRISEOFULVIN] | – | – | – | – | 1420 µM (≈ 501 µg/mL) | – | – | – | 284 (≈ 100 µg/mL) | – | – | – | – | – | –
CCc1nc(N)nc(N)c1-c1ccc(Cl)cc1 [PYRIMETHAMINE] | – | – | – | – | – | 1000 | – | – | – | – | – | – | – | – | –
Nc1ccc(-c2nnc(S)o2)cc1 | 518 (≈ 100 µg/mL) | 324 (≈ 62.6 µg/mL) | 518 (≈ 100 µg/mL) | 1300 (≈ 250 µg/mL) | 2590 µM (≈ 500 µg/mL) | 810 | – | – | 1300 (≈ 250 µg/mL) | 87.3 | 83 | 76 | 71 | 68.3 | Toxic
COc1ccc(/C=N/c2ccc(-c3nnc(S)n3/N=C/c3ccc(OC)cc3)cc2)cc1 | 226 (≈ 100 µg/mL) | 564 (≈ 250 µg/mL) | 282 (≈ 125 µg/mL) | 564 (≈ 250 µg/mL) | 1130 µM (≈ 500 µg/mL) | 835 | – | – | 1130 (≈ 500 µg/mL) | 79 | 64.3 | 59 | 52.7 | 38.7 | Toxic
O=[N+]([O-])c1cccc(/C=N/c2ccc(-c3nnc(S)o3)cc2)c1 | 307 (≈ 100 µg/mL) | 383 (≈ 125 µg/mL) | 613 (≈ 200 µg/mL) | 613 (≈ 200 µg/mL) | 1530 µM (≈ 501 µg/mL) | 806 | – | – | 1530 (≈ 501 µg/mL) | 78.3 | 74.3 | 65.7 | 56.7 | 46.3 | Toxic
Sc1nnc(-c2ccc(/N=C/c3cccs3)cc2)n1/N=C/c1cccs1 | 506 (≈ 200 µg/mL) | 633 (≈ 250 µg/mL) | 316 (≈ 125 µg/mL) | 633 (≈ 250 µg/mL) | 2530 µM (≈ 1000 µg/mL) | 815 | – | inactive | – | 87.7 | 82 | 75.3 | 70.7 | 63.3 | Toxic
CCN(CC)CCCC(C)Nc1ccnc2cc(Cl)ccc12 (configuration not stated) [CHLOROQUINE] | – | – | – | – | – | – | 30.1 | – | – | – | – | – | – | – | –

The remaining compounds from weak to strong by IC50 [6], led by results:

MIC99 [1] [µM] | MIC99 [2] [µM] | MIC99 [3] [µM] | MIC99 [4] [µM] | MIC99 [5] | IC50 [6] [nM] | IC50 [13] [nM] | MIC99 [14] | MIC99 [15] [µM] | Compound | viability at 2 ug/ml [7] [%] | viability at 4 ug/ml [8] [%] | viability at 6 ug/ml [9] [%] | viability at 8 ug/ml [10] [%] | viability at 10 ug/ml [11] [%] | Activity [12]
804 (≈ 250 µg/mL) | 804 (≈ 250 µg/mL) | 643 (≈ 200 µg/mL) | 402 (≈ 125 µg/mL) | 3220 µM (≈ 1000 µg/mL) | 790 | – | – | 1610 (≈ 500 µg/mL) | COc1ccc(/C=N/c2ccc(-c3nnc(S)o3)cc2)cc1 | 80.3 | 72.3 | 68 | 63.7 | 49 | Toxic
482 (≈ 200 µg/mL) | 602 (≈ 250 µg/mL) | 241 (≈ 100 µg/mL) | 602 (≈ 250 µg/mL) | inactive | 282 | 49.5 | inactive | – | Oc1ccc(/C=N/c2ccc(-c3nnc(S)n3/N=C/c3ccc(O)cc3)cc2)cc1 | 84.7 | 79.7 | 78.7 | 77 | 72.3 | Toxic
132 (≈ 62.5 µg/mL) | 264 (≈ 125 µg/mL) | 423 (≈ 200 µg/mL) | 528 (≈ 250 µg/mL) | 1060 µM (≈ 500 µg/mL) | 245 | 25.9 | – | 2110 (≈ 1000 µg/mL) | O=[N+]([O-])c1cccc(/C=N/c2ccc(-c3nnc(S)n3/N=C/c3cccc([N+](=O)[O-])c3)cc2)c1 | 87 | 80 | 73.7 | 65.3 | 59.7 | Toxic
